# Laboratory results as given in patent US10919935B2, “Antimicrobial peptide derived from myxinidin peptide and uses thereof” (INDUSTRY-ACADEMIC COOPERATION FOUNDATION, CHOSUN UNIVERSITY, priority 2015, dated 2021).
# Residues, ends and D or L forms follow the SMILES beside them.
# Assays:
# [1] = system: Escherichia coli CCARM 1229; type: cell-based
# [2] = system: Escherichia coli CCARM 1238; type: cell-based
# [3] = system: Listeria monocytogenes KCTC 3710; type: cell-based
# [4] = system: Pseudomonas aeruginosa ATCC 27853; type: cell-based
# [5] = system: Pseudomonas aeruginosa Isolated strain 5018; type: cell-based
# [6] = system: S. typhimurium 8009; experiment: MIC at salt concentration (Example 3); type: cell-based, Salmonella typhimurium
# Method: (§1) To compare the antimicrobial activity of the peptide produced by the method of Example 1, the inventors of the present invention measured the minimum growth inhibitory concentration (MIC), which is minimum concentration of the peptide showing no dissociation of bacterial cells, at salt concentration.
# (§2) Specifically, the bacterial strain described in the above Table 2 was cultured in each medium to a mid-log phase. Then, after dilution to bacterial cell concentration of 2×10^5 cells/100 μl, the cells were inoculated to a microtiter plate (NUNC, USA). Thereafter, myxinidin 1, myxinidin 2, or myxinidin 3 peptides which have been synthesized in Example 1 above was diluted, 1/2 times for each, with BSA+150 mM sodium chloride (NaCl) solution, physiological saline (PBS) solution, or 10 mM sodium phosphate (SP) solution in a 96-well plate. After adding the cells to a plate, the cells were cultured for 12 hours at 37° C. By using a microtiter plate reader (Merck Elisa reader, Germany), the absorbance was measured at a wavelength of 600 nm to determine the MIC value of each bacterial strain. As a control group, myxinidin as a mother peptide was subjected to the same processes as above and the MIC value of each bacterial strain was obtained.
# [7] = system: S. typhimurium 8013; experiment: MIC at salt concentration (Example 3); type: cell-based, Salmonella typhimurium
# Method: as §1, §2
# [8] = system: S. typhimurium; experiment: MIC at salt concentration (Example 3); type: cell-based, Salmonella typhimurium
# Method: as §1, §2
# [9] = system: S. aureus 3114; experiment: MIC at salt concentration (Example 3); type: cell-based, Staphylococcus aureus
# Method: as §1, §2
# [10] = system: S. aureus 3709; experiment: MIC at salt concentration (Example 3); type: cell-based, Staphylococcus aureus
# Method: as §1, §2
# [11] = system: S. aureus; experiment: MIC at salt concentration (Example 3); type: cell-based, Staphylococcus aureus
# Method: as §1, §2
# [12] = system: Escherichia coli 1229; experiment: MIC at salt concentration (Example 3); type: cell-based
# Method: as §1, §2
# [13] = system: Escherichia coli 1238; experiment: MIC at salt concentration (Example 3); type: cell-based
# Method: as §1, §2
# [14] = system: Escherichia coli; experiment: MIC at salt concentration (Example 3); type: cell-based
# Method: as §1, §2
# [15] = system: P. aeruginosa 3592; experiment: MIC at salt concentration (Example 3); type: cell-based, Pseudomonas aeruginosa
# Method: as §1, §2
# [16] = system: P. aeruginosa 5018; experiment: MIC at salt concentration (Example 3); type: cell-based, Pseudomonas aeruginosa
# Method: as §1, §2
# [17] = system: P. aeruginosa; experiment: MIC at salt concentration (Example 3); type: cell-based, Pseudomonas aeruginosa
# Method: as §1, §2
# [18] = system: human skin keratinocyte cells infected with bacteria having tolerance to antibiotics; experiment: Migration of infected skin keratinocyte cells (scrape wound); type: cell-based; details: peptide at 2 times MIC
# Text: To determine the wound healing effect of the peptide of the present invention by activating migration of skin keratinocyte cells infected with Acinetobacter baumannii, Pseudomonas aeruginosa, or Staphylococcus aureus, which are the bacterial strain having tolerance to antibiotics, the adhered cells were damaged to have an infection followed by a treatment with myxinidin 2 or myxinidin 3. The resulting cells were then observed under a microscope.
# Specifically, human skin keratinocyte cells were cultured at 1×10^6 cells/ml, and then scraped off using a tip. Then, the cells were infected with Staphylococcus aureus, Acinetobacter baumannii, or Pseudomonas aeruginosa, which are the bacterial strain having tolerance to antibiotics, followed by a treatment with the peptide at a concentration that is 2 times higher than the minimum inhibitory concentration. Cell migration was then observed under a microscope.
# [19] = NaCl (BSA+150 mM sodium chloride)
smiles,measurement,setting,value
"CC[C@H](C)[C@H](NC(=O)[C@H](Cc1c[nH]c2ccccc12)NC(=O)[C@H](CCCCN)NC(=O)[C@@H](NC(=O)[C@@H](N)CCCCN)[C@@H](C)CC)C(=O)N[C@@H](CC(C)C)C(=O)N[C@@H](CCCCN)C(=O)N[C@@H](Cc1ccc(O)cc1)C(=O)N[C@@H](Cc1c[nH]c2ccccc12)C(=O)N[C@@H](CCCCN)C(=O)N[C@@H](Cc1c[nH]c2ccccc12)C(=O)N[C@@H](CO)C(N)=O [Myxinidin 2, KIKWILKYWKWS-NH2] (H-KIKWILKYWKWS-NH2; N-terminus assumed)",Minimum growth inhibitory concentration,[1],2 µM
same,Minimum growth inhibitory concentration,[2],4 µM
same,Minimum growth inhibitory concentration,[3],4 µM
same,Minimum growth inhibitory concentration,[4],4 µM
same,Minimum growth inhibitory concentration,[5],4 µM
same,Antimicrobial activity (MIC) according to salt concentration,[6]; [19],8
same,Antimicrobial activity (MIC) according to salt concentration,[6]; PBS,4
same,Antimicrobial activity (MIC) according to salt concentration,[6]; SP (10 mM sodium phosphate),4
same,Antimicrobial activity (MIC) according to salt concentration,[7]; [19],32
same,Antimicrobial activity (MIC) according to salt concentration,[7]; PBS,8
same,Antimicrobial activity (MIC) according to salt concentration,[7]; SP (10 mM sodium phosphate),4
same,Antimicrobial activity (MIC) according to salt concentration,[8]; [19],2
same,Antimicrobial activity (MIC) according to salt concentration,[8]; PBS,4
same,Antimicrobial activity (MIC) according to salt concentration,[8]; SP (10 mM sodium phosphate),2
same,Antimicrobial activity (MIC) according to salt concentration,[9]; [19],>32
same,Antimicrobial activity (MIC) according to salt concentration,[9]; PBS,16
same,Antimicrobial activity (MIC) according to salt concentration,[9]; SP (10 mM sodium phosphate),8
same,Antimicrobial activity (MIC) according to salt concentration,[10]; [19],8
same,Antimicrobial activity (MIC) according to salt concentration,[10]; PBS,8
same,Antimicrobial activity (MIC) according to salt concentration,[10]; SP (10 mM sodium phosphate),4
same,Antimicrobial activity (MIC) according to salt concentration,[11]; [19],0.25
same,Antimicrobial activity (MIC) according to salt concentration,[11]; PBS,1
same,Antimicrobial activity (MIC) according to salt concentration,[11]; SP (10 mM sodium phosphate),1
same,Antimicrobial activity (MIC) according to salt concentration,[12]; [19],8
same,Antimicrobial activity (MIC) according to salt concentration,[12]; PBS,2
same,Antimicrobial activity (MIC) according to salt concentration,[12]; SP (10 mM sodium phosphate),2
same,Antimicrobial activity (MIC) according to salt concentration,[13]; [19],8
same,Antimicrobial activity (MIC) according to salt concentration,[13]; PBS,2
same,Antimicrobial activity (MIC) according to salt concentration,[13]; SP (10 mM sodium phosphate),4
same,Antimicrobial activity (MIC) according to salt concentration,[14]; [19],8
same,Antimicrobial activity (MIC) according to salt concentration,[14]; PBS,4
same,Antimicrobial activity (MIC) according to salt concentration,[14]; SP (10 mM sodium phosphate),2
same,Antimicrobial activity (MIC) according to salt concentration,[15]; [19],16
same,Antimicrobial activity (MIC) according to salt concentration,[15]; PBS,8
same,Antimicrobial activity (MIC) according to salt concentration,[15]; SP (10 mM sodium phosphate),8
same,Antimicrobial activity (MIC) according to salt concentration,[16]; [19],16
same,Antimicrobial activity (MIC) according to salt concentration,[16]; PBS,4
same,Antimicrobial activity (MIC) according to salt concentration,[16]; SP (10 mM sodium phosphate),2
same,Antimicrobial activity (MIC) according to salt concentration,[17]; [19],8
same,Antimicrobial activity (MIC) according to salt concentration,[17]; PBS,4
same,Antimicrobial activity (MIC) according to salt concentration,[17]; SP (10 mM sodium phosphate),8
same,Cell migration / regeneration of scraped keratinocytes,[18]; infection with Acinetobacter baumannii,proliferation with no cell death
same,Cell migration / regeneration of scraped keratinocytes,[18]; infection with Pseudomonas aeruginosa,fast regeneration rate
same,Cell migration / regeneration of scraped keratinocytes,[18]; infection with Staphylococcus aureus,Proliferation with no cell death
"CC[C@H](C)[C@H](NC(=O)CN)C(=O)N[C@@H](Cc1c[nH]cn1)C(=O)N[C@@H](Cc1c[nH]cn1)C(=O)N[C@H](C(=O)N[C@@H](CC(C)C)C(=O)N[C@@H](CCCCN)C(=O)N[C@@H](Cc1ccc(O)cc1)C(=O)NCC(=O)N[C@@H](CCCCN)C(=O)N1CCC[C@H]1C(=O)N[C@@H](CO)C(N)=O)[C@@H](C)CC [Myxinidin 1, GIHHILKYGKPS-NH2] (H-GIHHILKYGKPS-NH2; N-terminus assumed)",Minimum growth inhibitory concentration,[1],>32 µM
same,Minimum growth inhibitory concentration,[2],>32 µM
same,Minimum growth inhibitory concentration,[3],>32 µM
same,Minimum growth inhibitory concentration,[4],>32 µM
same,Minimum growth inhibitory concentration,[5],>32 µM
same,Antimicrobial activity (MIC) according to salt concentration,[6]; [19],>32
same,Antimicrobial activity (MIC) according to salt concentration,[6]; PBS,>32
same,Antimicrobial activity (MIC) according to salt concentration,[6]; SP (10 mM sodium phosphate),>32
same,Antimicrobial activity (MIC) according to salt concentration,[7]; [19],>32
same,Antimicrobial activity (MIC) according to salt concentration,[7]; PBS,>32
same,Antimicrobial activity (MIC) according to salt concentration,[7]; SP (10 mM sodium phosphate),>32
same,Antimicrobial activity (MIC) according to salt concentration,[8]; [19],>32
same,Antimicrobial activity (MIC) according to salt concentration,[8]; PBS,>32
same,Antimicrobial activity (MIC) according to salt concentration,[8]; SP (10 mM sodium phosphate),>32
same,Antimicrobial activity (MIC) according to salt concentration,[9]; [19],>32
same,Antimicrobial activity (MIC) according to salt concentration,[9]; PBS,>32
same,Antimicrobial activity (MIC) according to salt concentration,[9]; SP (10 mM sodium phosphate),>32
same,Antimicrobial activity (MIC) according to salt concentration,[10]; [19],>32
same,Antimicrobial activity (MIC) according to salt concentration,[10]; PBS,>32
same,Antimicrobial activity (MIC) according to salt concentration,[10]; SP (10 mM sodium phosphate),>32
same,Antimicrobial activity (MIC) according to salt concentration,[11]; [19],>32
same,Antimicrobial activity (MIC) according to salt concentration,[11]; PBS,>32
same,Antimicrobial activity (MIC) according to salt concentration,[11]; SP (10 mM sodium phosphate),>32
same,Antimicrobial activity (MIC) according to salt concentration,[12]; [19],>32
same,Antimicrobial activity (MIC) according to salt concentration,[12]; PBS,>32
same,Antimicrobial activity (MIC) according to salt concentration,[12]; SP (10 mM sodium phosphate),>32
same,Antimicrobial activity (MIC) according to salt concentration,[13]; [19],>32
same,Antimicrobial activity (MIC) according to salt concentration,[13]; PBS,>32
same,Antimicrobial activity (MIC) according to salt concentration,[13]; SP (10 mM sodium phosphate),>32
same,Antimicrobial activity (MIC) according to salt concentration,[14]; [19],>32
same,Antimicrobial activity (MIC) according to salt concentration,[14]; PBS,>32
same,Antimicrobial activity (MIC) according to salt concentration,[14]; SP (10 mM sodium phosphate),>32
same,Antimicrobial activity (MIC) according to salt concentration,[15]; [19],>32
same,Antimicrobial activity (MIC) according to salt concentration,[15]; PBS,>32
same,Antimicrobial activity (MIC) according to salt concentration,[15]; SP (10 mM sodium phosphate),>32
same,Antimicrobial activity (MIC) according to salt concentration,[16]; [19],>32
same,Antimicrobial activity (MIC) according to salt concentration,[16]; PBS,>32
same,Antimicrobial activity (MIC) according to salt concentration,[16]; SP (10 mM sodium phosphate),>32
same,Antimicrobial activity (MIC) according to salt concentration,[17]; [19],>32
same,Antimicrobial activity (MIC) according to salt concentration,[17]; PBS,>32
same,Antimicrobial activity (MIC) according to salt concentration,[17]; SP (10 mM sodium phosphate),>32
